Key:
intestinal lactase [1] = biological target: T1, intestinal lactase (Homo sapiens, UniProt P09848); assay: Urinary excretion of xylose after single oral doses of 4-GX in healthy volunteers; format: in vivo
T1 construct: after its oral administration it is hydrolysed by the intestinal mucosa enzyme; from tissue; host or cells: small-intestinal mucosa (enterocyte brush border) of living human volunteers and patients, in vivo
Experimental: Two groups of subjects were selected. […] Firstly, the lowest suitable oral dose of 4-GX administered to healthy volunteers was determined that enabled reliable detection (in terms of accuracy and reproducibility) of xylose levels in urine and blood via the analytical method to be used. In addition, the tolerance of these subjects to the various doses of 4-GX used in the test and the pharmacokinetics for each dose administered were analysed, both in urine and blood. The doses of 4-GX used were: 0.125 g, 0.250 g, 0.5 g, 1 g, 3 g and 6 g in addition to placebo in 12 healthy volunteers with washout period between doses of between three and seven days. It should be appreciated that the 4-GX doses can include small quantities of water which remain subsequent to the drying process of the 4-GX product. For example, the 4-GX product can contain about 8 wt % to about 12 wt %, most likely about 10 wt % water, based on the total weight of the product. […] In each study period, an ascending dose of 4-GX was administered and the serum and urine concentrations of xylose were measured at various times up to 8 hours following the administration of the drug.
The main measured variable was the quantity of xylose in urine collected following oral administration of 4-GX at the following times: basal, 0-1 h, 1-2 h, 2-3 h, 3-4 h, 4-5 h, 5-6 h, 6-7 h and 7-8 h. […]

intestinal lactase [2] = biological target: T1, intestinal lactase; assay: Plasma xylose concentration after single oral doses of 4-GX in healthy volunteers; format: in vivo; conditions: for AUC 0-t: area under the curve of plasma xylose concentration against time: mean
Experimental: Two groups of subjects were selected. […] Firstly, the lowest suitable oral dose of 4-GX administered to healthy volunteers was determined that enabled reliable detection (in terms of accuracy and reproducibility) of xylose levels in urine and blood via the analytical method to be used. In addition, the tolerance of these subjects to the various doses of 4-GX used in the test and the pharmacokinetics for each dose administered were analysed, both in urine and blood. The doses of 4-GX used were: 0.125 g, 0.250 g, 0.5 g, 1 g, 3 g and 6 g in addition to placebo in 12 healthy volunteers with washout period between doses of between three and seven days. It should be appreciated that the 4-GX doses can include small quantities of water which remain subsequent to the drying process of the 4-GX product. For example, the 4-GX product can contain about 8 wt % to about 12 wt %, most likely about 10 wt % water, based on the total weight of the product. Accordingly, the aforementioned 4-GX doses administered would actually include 0.1125 g, 0.225 g, 0.45 g, 0.9 g, 2.7 g and 5.4 g of actual 4-GX product, respectively, if they contain 10 wt % water. The study was performed with seven treatment periods and a washout time between the various periods of at least 3 days. In each study period, an ascending dose of 4-GX was administered and the serum and urine concentrations of xylose were measured at various times up to 8 hours following the administration of the drug.
The main measured variable was the quantity of xylose in urine collected following oral administration of 4-GX at the following times: basal, 0-1 h, 1-2 h, 2-3 h, 3-4 h, 4-5 h, 5-6 h, 6-7 h and 7-8 h. Secondary variables quantified were the plasma concentration of xylose measured in blood samples extracted following the oral administration of 4-GX at the following times: basal, 30 min, 60 min, 90 min, 120 min, 150 min, 3 h, 4 h, 5 h, 6 h, 7 h and 8 h. A pharmacokinetic analysis was also performed using the values of AUC (area under the curve of variation in the plasma xylose concentration against time), Cmax (maximum xylose plasma concentration), Tmax (time at which maximum xylose plasma concentration was reached) and T1/2 (elimination half-life), calculated from the plasma concentrations of xylose derived from the hydrolysis of 4-GX by intestinal lactase.
The next objective was the determination and pharmacokinetic analysis of the xylose concentration in plasma in order to identify the smallest dose of 4-GX that could be distinguished from placebo (without 4-GX administration) to be used in the 4-GX test for the diagnosis of intestinal lactase deficiency (Table 3).

T1 sequence (P09848 869-1927): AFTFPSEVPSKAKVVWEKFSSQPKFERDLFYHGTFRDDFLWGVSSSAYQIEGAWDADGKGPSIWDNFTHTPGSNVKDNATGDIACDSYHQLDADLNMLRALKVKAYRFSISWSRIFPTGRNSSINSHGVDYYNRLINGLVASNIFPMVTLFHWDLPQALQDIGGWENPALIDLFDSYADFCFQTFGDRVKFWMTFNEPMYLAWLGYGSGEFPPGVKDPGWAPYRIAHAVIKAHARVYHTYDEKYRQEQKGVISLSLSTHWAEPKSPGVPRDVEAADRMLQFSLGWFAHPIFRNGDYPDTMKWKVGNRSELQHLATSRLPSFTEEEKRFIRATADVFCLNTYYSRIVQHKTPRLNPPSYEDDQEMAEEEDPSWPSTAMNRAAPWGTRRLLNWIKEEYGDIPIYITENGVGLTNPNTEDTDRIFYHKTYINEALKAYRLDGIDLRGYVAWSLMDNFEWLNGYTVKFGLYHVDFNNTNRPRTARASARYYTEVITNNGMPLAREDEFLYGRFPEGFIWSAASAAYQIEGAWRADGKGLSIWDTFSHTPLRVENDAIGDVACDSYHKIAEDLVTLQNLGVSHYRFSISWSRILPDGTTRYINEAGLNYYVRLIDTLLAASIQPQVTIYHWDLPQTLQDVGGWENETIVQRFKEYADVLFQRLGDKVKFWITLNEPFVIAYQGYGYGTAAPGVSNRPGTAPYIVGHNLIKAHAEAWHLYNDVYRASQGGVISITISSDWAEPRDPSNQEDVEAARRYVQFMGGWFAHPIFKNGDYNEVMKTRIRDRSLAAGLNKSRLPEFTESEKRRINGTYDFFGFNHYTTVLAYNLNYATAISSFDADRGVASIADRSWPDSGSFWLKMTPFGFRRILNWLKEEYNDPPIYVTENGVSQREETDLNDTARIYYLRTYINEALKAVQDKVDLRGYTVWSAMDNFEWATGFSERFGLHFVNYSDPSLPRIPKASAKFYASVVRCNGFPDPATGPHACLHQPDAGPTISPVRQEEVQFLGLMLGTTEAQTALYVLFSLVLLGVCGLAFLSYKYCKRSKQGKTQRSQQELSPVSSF

## O=C[C@H](O)[C@@H](O)[C@@H](CO)O[C@@H]1O[C@H](CO)[C@H](O)[C@H](O)[C@H]1O [4-GX, 4-O-β-galactopyranosyl-D-xylose]
Intestinal lactase [1]
  lowest dose of 4-GX for which excretion of xylose in urine can be distinguished from placebo: 0.5 g
Intestinal lactase [2]; 4-GX 0.125 g oral
  AUC 0-t: area under the curve of plasma xylose concentration against time: 32.49 mg/dL/h
Intestinal lactase [2]; 4-GX 0.250 g oral
  AUC 0-t: area under the curve of plasma xylose concentration against time: 34.25 mg/dL/h
Intestinal lactase [2]; 4-GX 0.5 g oral
  AUC 0-t: area under the curve of plasma xylose concentration against time: 35.53 mg/dL/h
Intestinal lactase [2]; 4-GX 1 g oral
  AUC 0-t: area under the curve of plasma xylose concentration against time: 36.60 mg/dL/h
Intestinal lactase [2]; 4-GX 3 g oral
  AUC 0-t: area under the curve of plasma xylose concentration against time: 39.24 mg/dL/h
Intestinal lactase [2]; 4-GX 6 g oral
  AUC 0-t: area under the curve of plasma xylose concentration against time: 41.39 mg/dL/h
Intestinal lactase [2]; healthy volunteers
  lowest dose of 4-GX for which plasma xylose differs significantly from placebo: 3 g

Source: patent US9128100B2, “Non-invasive diagnostic method for the evaluation of intestinal lactase deficiency (hypolactasia)” (Venter Pharma, S.L., priority 2012, dated 2015)
